Experimental data reported in ChEMBL document CHEMBL4270670 (J Med Chem, 2018).

Assays:
[1] = in vitro; details: chicken, chicken embryo fibroblasts
[2] = in vitro; details: dog, MDCK cells
[3] = system: Influenza A virus; experiment: microbe, parasite or virus in culture; details: MDCK, 48 h
[4] = system: Influenza A virus; experiment: microbe, parasite or virus in culture; details: A/Puerto Rico/8/1934(H1N1), MDCK, 48 h
[5] = system: Influenza B virus; details: mdck
[6] = Oral bioavailability in Sprague-Dawley rat at 20 mg/kg by LC-MS analysis; type: ADME, organism-based; details: in vivo
[7] = system: Rattus norvegicus; experiment: Half life in Sprague-Dawley rat at 20 mg/kg, po by LC-MS analysis; type: ADME, organism-based; details: in vivo
[8] = system: Rattus norvegicus; experiment: Tmax in Sprague-Dawley rat at 20 mg/kg, po by LC-MS analysis; type: ADME, organism-based; details: in vivo
[9] = system: Rattus norvegicus; experiment: Cmax in Sprague-Dawley rat at 20 mg/kg, po by LC-MS analysis; type: ADME, organism-based; set-up: dose 20 mg/kg, route oral; details: in vivo
[10] = MRT (0 to infinity) in Sprague-Dawley rat at 20 mg/kg, po by LC-MS analysis; type: ADME, organism-based; details: in vivo
[11] = in vivo; details: Sprague-Dawley, rat, po, 20 mg/kg
[12] = organism: Rattus norvegicus; details: in vivo, po, 20 mg/kg
[13] = system: Influenza A virus; experiment: Antiviral activity against Influenza A virus H5N2 infected in specific pathogen free embryonated egg assessed as survival rate at 0.156 mM preincubated for 1 hr prior to inoculation measured after 48 hrs (reference value: 0%); type: functional
[14] = system: Influenza A virus; experiment: Antiviral activity against Influenza A virus H5N2 infected in specific pathogen free embryonated egg assessed as survival rate at 0.156 mM preincubated for 1 hr prior to inoculation measured after 72 hrs (reference value: 0%); type: functional
[15] = system: Influenza A virus; experiment: Antiviral activity against Influenza A virus H5N2 infected in specific pathogen free embryonated egg assessed as survival rate at 10 mM preincubated for 1 hr prior to inoculation measured after 48 hrs (reference value: 0%); type: functional
[16] = system: Influenza A virus; experiment: Antiviral activity against Influenza A virus H5N2 infected in specific pathogen free embryonated egg assessed as survival rate at 0.039 mM preincubated for 1 hr prior to inoculation measured after 48 hrs (reference value: 0%); type: functional
[17] = system: Influenza A virus; experiment: Antiviral activity against Influenza A virus H5N2 infected in specific pathogen free embryonated egg assessed as survival rate at 2.5 mM preincubated for 1 hr prior to inoculation measured after 48 hrs (reference value: 0%); type: functional
[18] = system: Influenza A virus; experiment: Antiviral activity against Influenza A virus H5N2 infected in specific pathogen free embryonated egg assessed as survival rate at 2.5 mM preincubated for 1 hr prior to inoculation measured after 72 hrs (reference value: 0%); type: functional
[19] = system: Influenza A virus; experiment: Antiviral activity against Influenza A virus H5N2 infected in specific pathogen free embryonated egg assessed as survival rate at 0.625 mM preincubated for 1 hr prior to inoculation measured after 72 hrs (reference value: 0%); type: functional
[20] = system: Influenza A virus; experiment: Antiviral activity against Influenza A virus H5N2 infected in specific pathogen free embryonated egg assessed as survival rate at 0.625 mM preincubated for 1 hr prior to inoculation measured after 48 hrs (reference value: 0%); type: functional
[21] = system: Influenza A virus; experiment: Antiviral activity against Influenza A virus H5N2 infected in specific pathogen free embryonated egg assessed as survival rate at 0.039 mM preincubated for 1 hr prior to inoculation measured after 72 hrs (reference value: 0%); type: functional
[22] = system: Influenza A virus; experiment: Antiviral activity against Influenza A virus H5N2 infected in specific pathogen free embryonated egg assessed as survival rate at 10 mM preincubated for 1 hr prior to inoculation measured after 72 hrs (reference value: 0%); type: functional
[23] = in vitro; details: human, plasma
[24] = in vitro; details: human, plasma; remark: listed apart in the source
[25] = in vitro; details: human, plasma; remark: listed apart in the source
[26] = in vitro; details: human, plasma; remark: listed apart in the source

CCC(CC)O[C@@H]1C=C(C(=O)O)C[C@H](NCc2ccc(-c3ccc4sccc4c3)cc2)[C@H]1NC(C)=O
CC50 at 48 h [1]: > 200 µM

CCC(CC)O[C@@H]1C=C(C(=O)O)C[C@H](NCc2ccc(Sc3cccs3)cc2)[C@H]1NC(C)=O
CC50 at 48 h [2]: > 250 µM | CC50 at 48 h [1]: > 200 µM | EC50 [3]: 79 µM | EC50 [4]: 0.04 µM | EC50 [5]: 8.5 µM

CCC(CC)O[C@@H]1C=C(C(=O)O)C[C@H](NCc2ccc(OC(C)C)cc2)[C@H]1NC(C)=O
CC50 at 48 h [1]: > 200 µM

CCC(CC)O[C@@H]1C=C(C(=O)O)C[C@H](NCc2cccc(-c3ccc(SC)cc3)c2)[C@H]1NC(C)=O
CC50 at 48 h [1]: > 200 µM

CCC(CC)O[C@@H]1C=C(C(=O)O)C[C@H](NCc2ccc(Cc3ccccc3)cc2)[C@H]1NC(C)=O
CC50 at 48 h [1]: > 200 µM

CCOC(=O)C1=C[C@@H](OC(CC)CC)[C@H](NC(C)=O)[C@@H](NCc2ccc(Sc3ccccc3)cc2)C1
bioavailability [6]: 7.1% | t1/2 [7]: 8.68 h | Tmax [8]: 0.57 h | Cmax [9]: 445.6 µg/mL | MRT inf [10]: 17.1 h | AUC(0-t) [11]: 1040 ng·h/mL | AUC [12]: 1594.62 ng·h/mL

CCC(CC)O[C@@H]1C=C(C(=O)O)C[C@H](NCc2cccc(SC(C)CC)c2)[C@H]1NC(C)=O (stereo partly specified)
CC50 at 48 h [1]: > 200 µM

CCC(CC)O[C@@H]1C=C(C(=O)O)C[C@H](NCc2cccc(OC)c2)[C@H]1NC(C)=O
CC50 at 48 h [1]: > 200 µM

CCC(CC)O[C@@H]1C=C(C(=O)O)C[C@H](NCc2cccc(SC3CCCC3)c2)[C@H]1NC(C)=O
CC50 at 48 h [1]: > 200 µM

CCC(CC)O[C@@H]1C=C(C(=O)O)C[C@H](NCc2ccc(Oc3ccccc3)cc2)[C@H]1NC(C)=O
CC50 at 48 h [1]: > 200 µM

CCC(CC)O[C@@H]1C=C(C(=O)O)C[C@H](NCc2ccc(C(=O)c3ccccc3)cc2)[C@H]1NC(C)=O
CC50 at 48 h [1]: > 200 µM

CCC(CC)O[C@@H]1C=C(C(=O)O)C[C@H](NCc2ccc(-c3cc4ccccc4s3)cc2)[C@H]1NC(C)=O
CC50 at 48 h [2]: > 250 µM | CC50 at 48 h [1]: > 200 µM | EC50 [3]: > 100 µM | EC50 [4]: 7.2 µM | EC50 [5]: > 100 µM

CCC(CC)Oc1ccc(CN[C@H]2CC(C(=O)O)=C[C@@H](OC(CC)CC)[C@@H]2NC(C)=O)cc1
CC50 at 48 h [2]: > 250 µM | CC50 at 48 h [1]: > 200 µM | EC50 [3]: > 100 µM | EC50 [4]: 13 µM | EC50 [5]: > 100 µM

CCc1ccc(CN[C@H]2CC(C(=O)O)=C[C@@H](OC(CC)CC)[C@@H]2NC(C)=O)cc1
CC50 at 48 h [1]: > 200 µM

CCC(CC)O[C@@H]1C=C(C(=O)O)C[C@H](NCc2ccc(SC(C)CC)cc2)[C@H]1NC(C)=O (stereo partly specified)
CC50 at 48 h [1]: > 200 µM

CCC(CC)O[C@@H]1C=C(C(=O)O)C[C@H](NCc2ccc(-c3ccc(SC)cc3)cc2)[C@H]1NC(C)=O
CC50 at 48 h [1]: > 200 µM

CCC(CC)O[C@@H]1C=C(C(=O)O)C[C@H](NCc2ccc(C(C)(C)C)cc2)[C@H]1NC(C)=O
CC50 at 48 h [1]: > 200 µM

CCC(CC)O[C@@H]1C=C(C(=O)O)C[C@H](NCc2ccc(SC3CCCC3)cc2)[C@H]1NC(C)=O
CC50 at 48 h [1]: > 200 µM

CCC(CC)Oc1cccc(CN[C@H]2CC(C(=O)O)=C[C@@H](OC(CC)CC)[C@@H]2NC(C)=O)c1
CC50 at 48 h [1]: > 200 µM

CCC(CC)O[C@@H]1C=C(C(=O)O)C[C@H](NCc2ccc(S(=O)(=O)c3ccccc3)cc2)[C@H]1NC(C)=O
CC50 at 48 h [1]: > 200 µM

CCC(CC)O[C@@H]1C=C(C(=O)O)C[C@H](NCc2ccc(OC)cc2)[C@H]1NC(C)=O
CC50 at 48 h [2]: > 250 µM | CC50 at 48 h [1]: > 200 µM | EC50 [3]: > 100 µM | EC50 [4]: 3.7 µM | EC50 [5]: > 100 µM

CCC(CC)O[C@@H]1C=C(C(=O)O)C[C@H](NCc2ccc(SC3CCCCC3)cc2)[C@H]1NC(C)=O
CC50 at 48 h [2]: > 250 µM | CC50 at 48 h [1]: > 200 µM | EC50 [3]: > 100 µM | EC50 [4]: 17 µM | EC50 [5]: > 100 µM

CCC(CC)O[C@@H]1C=C(C(=O)O)C[C@H](NCc2ccc(-c3csc4ccccc34)cc2)[C@H]1NC(C)=O
CC50 at 48 h [1]: > 200 µM

CCC(CC)O[C@@H]1C=C(C(=O)O)C[C@H](NCc2ccc(C(C)C)cc2)[C@H]1NC(C)=O
CC50 at 48 h [1]: > 200 µM

CCC(CC)O[C@@H]1C=C(C(=O)O)C[C@H](NCc2ccc(SCC(C)C)cc2)[C@H]1NC(C)=O
CC50 at 48 h [1]: > 200 µM

CCC(CC)O[C@@H]1C=C(C(=O)O)C[C@H](N)[C@H]1NC(C)=O [OSELTAMIVIR CARBOXYLATE]
survival at 156 µM [13]: 0% | survival at 156 µM [14]: 0% | survival at 10000 µM [15]: 60% | CC50 at 48 h [2]: > 250 µM | survival at 39 µM [16]: 0% | CC50 at 48 h [1]: > 200 µM | EC50 [3]: 1.2 µM | EC50 [4]: 0.041 µM | survival at 2500 µM [17]: 20% | survival at 2500 µM [18]: 0% | survival at 625 µM [19]: 0% | EC50 [5]: 2.9 µM | survival at 625 µM [20]: 0% | survival at 39 µM [21]: 0% | survival at 10000 µM [22]: 0%

CC(C)[N+](C)(CCOC(=O)C1c2ccccc2Oc2ccccc21)C(C)C.[Br-] [PROPANTHELINE BROMIDE]
half-life at 2 µM [23]: 0.18 h | remaining at 10 min, 2 µM [24]: 54.9% | remaining at 0.5 h, 2 µM [25]: 19.1% | remaining at 1 h, 2 µM [26]: 2.1%

NC(=O)c1ncn([C@@H]2O[C@H](CO)[C@@H](O)[C@H]2O)n1 [RIBAVIRIN]
CC50 at 48 h [1]: > 200 µM

CC(=O)N[C@H]1[C@H]([C@H](O)[C@H](O)CO)OC(C(=O)O)=C[C@@H]1NC(=N)N [ZANAMIVIR]
CC50 at 48 h [2]: > 250 µM | CC50 at 48 h [1]: > 200 µM | EC50 [3]: 0.3 µM | EC50 [4]: 0.038 µM | EC50 [5]: 0.9 µM
